Measurements taken from doi:10.1101/2020.06.11.145995v1 (biorxiv, 2020).
Read-outs that look alike come from different tables or passages of the source. Values belong to the compound of their own block, whether it stands above or below them.

Key:
Test in all cases: biochemical
[1] = target: YES (Homo sapiens, UniProt P07947)
[2] = target: VRK2 (Homo sapiens, UniProt Q86Y07)
[3] = target: TGFBR1 (Homo sapiens, UniProt P36897)
[4] = target: PFTAIRE2 (Homo sapiens, UniProt Q96Q40)
[5] = target: TIE1 (Homo sapiens, UniProt P35590)
[6] = target: PAK6 (Homo sapiens, UniProt Q9NQU5)
[7] = target: RIOK2 (Homo sapiens, UniProt Q9BVS4)
[8] = target: NEK3 (Homo sapiens, UniProt P51956)
[9] = target: TNK2 (Homo sapiens, UniProt Q07912)
[10] = target: ULK1 (Homo sapiens, UniProt O75385)
[11] = target: VEGFR2 (Homo sapiens, UniProt P35968)
[12] = target: SIK2 (Homo sapiens, UniProt Q9H0K1)
[13] = target: RSK3 (Homo sapiens, UniProt Q15349)
[14] = target: NEK7 (Homo sapiens, UniProt Q8TDX7)
[15] = target: PRKD3 (Homo sapiens, UniProt O94806)
[16] = target: PIK3CA(E545A) (Homo sapiens, UniProt P42336, E545A)
[17] = target: NIM1 (Homo sapiens, UniProt Q8IY84)
[18] = target: AAK1 (Homo sapiens, UniProt Q2M2I8)
[19] = target: TNK1 (Homo sapiens, UniProt Q13470)
[20] = target: PHKG2 (Homo sapiens, UniProt P15735)
[21] = target: TTK (Homo sapiens, UniProt P33981)
[22] = target: RAF1 (Homo sapiens, UniProt P04049)
[23] = target: PCTK3 (Homo sapiens, UniProt Q07002)
[24] = target: PYK2 (Homo sapiens, UniProt Q14289)
[25] = target: SYK (Homo sapiens, UniProt P43405)
[26] = target: TRPM6 (Homo sapiens, UniProt Q9BX84)
[27] = target: WEE2 (Homo sapiens, UniProt P0C1S8)
[28] = target: PRKCH (Homo sapiens, UniProt P24723)
[29] = target: PDGFRA (Homo sapiens, UniProt P16234)
[30] = read-out: CPT-1-70-1 (1μM) % control
[31] = read-out: HYJ-2-002-1 (1μM) % control

Chain of RSK3 (Q15349 whole entry): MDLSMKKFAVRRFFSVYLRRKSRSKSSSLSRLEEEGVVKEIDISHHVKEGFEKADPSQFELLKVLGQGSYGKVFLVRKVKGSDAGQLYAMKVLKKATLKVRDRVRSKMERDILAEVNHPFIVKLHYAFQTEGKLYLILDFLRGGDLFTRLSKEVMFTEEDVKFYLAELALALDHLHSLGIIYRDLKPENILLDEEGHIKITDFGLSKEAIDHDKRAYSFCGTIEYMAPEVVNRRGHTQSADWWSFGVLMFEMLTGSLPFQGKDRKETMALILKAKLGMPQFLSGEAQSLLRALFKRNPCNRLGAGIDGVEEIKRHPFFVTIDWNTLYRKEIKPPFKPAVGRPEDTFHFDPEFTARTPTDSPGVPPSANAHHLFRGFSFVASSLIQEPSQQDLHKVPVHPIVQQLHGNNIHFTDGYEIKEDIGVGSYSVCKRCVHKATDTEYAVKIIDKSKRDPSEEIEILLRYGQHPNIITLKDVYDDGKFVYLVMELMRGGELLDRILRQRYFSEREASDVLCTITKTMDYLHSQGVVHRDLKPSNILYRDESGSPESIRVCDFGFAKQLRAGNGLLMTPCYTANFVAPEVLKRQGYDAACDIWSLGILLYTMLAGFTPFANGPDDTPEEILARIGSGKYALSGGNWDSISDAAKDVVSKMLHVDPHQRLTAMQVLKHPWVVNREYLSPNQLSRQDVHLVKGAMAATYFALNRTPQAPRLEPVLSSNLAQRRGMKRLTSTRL
Chain of PYK2 (Q14289 whole entry): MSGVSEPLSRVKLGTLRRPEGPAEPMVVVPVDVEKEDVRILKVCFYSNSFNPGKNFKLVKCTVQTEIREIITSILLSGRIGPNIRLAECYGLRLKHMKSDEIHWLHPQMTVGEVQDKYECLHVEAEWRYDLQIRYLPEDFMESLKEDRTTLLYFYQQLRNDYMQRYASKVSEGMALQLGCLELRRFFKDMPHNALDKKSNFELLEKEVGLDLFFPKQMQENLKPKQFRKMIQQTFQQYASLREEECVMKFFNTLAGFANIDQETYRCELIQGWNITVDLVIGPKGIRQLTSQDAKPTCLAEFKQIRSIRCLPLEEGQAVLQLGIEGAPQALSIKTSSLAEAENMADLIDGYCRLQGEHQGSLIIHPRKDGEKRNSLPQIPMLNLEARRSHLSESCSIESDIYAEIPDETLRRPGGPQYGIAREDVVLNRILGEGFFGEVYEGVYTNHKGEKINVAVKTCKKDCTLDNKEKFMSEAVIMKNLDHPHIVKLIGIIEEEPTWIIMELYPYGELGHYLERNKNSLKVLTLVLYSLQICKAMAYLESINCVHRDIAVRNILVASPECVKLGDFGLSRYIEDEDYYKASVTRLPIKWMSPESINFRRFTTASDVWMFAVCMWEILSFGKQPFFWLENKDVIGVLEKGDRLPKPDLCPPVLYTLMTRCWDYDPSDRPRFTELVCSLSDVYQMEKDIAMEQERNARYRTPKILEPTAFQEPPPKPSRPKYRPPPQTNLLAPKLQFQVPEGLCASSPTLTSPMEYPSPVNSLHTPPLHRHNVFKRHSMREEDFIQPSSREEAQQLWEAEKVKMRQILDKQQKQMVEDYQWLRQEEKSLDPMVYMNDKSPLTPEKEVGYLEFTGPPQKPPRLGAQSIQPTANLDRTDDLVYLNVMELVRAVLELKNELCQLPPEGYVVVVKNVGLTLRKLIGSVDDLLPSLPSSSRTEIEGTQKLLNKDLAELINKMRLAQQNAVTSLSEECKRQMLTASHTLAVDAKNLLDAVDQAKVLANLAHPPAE
Chain of PHKG2 (P15735 whole entry): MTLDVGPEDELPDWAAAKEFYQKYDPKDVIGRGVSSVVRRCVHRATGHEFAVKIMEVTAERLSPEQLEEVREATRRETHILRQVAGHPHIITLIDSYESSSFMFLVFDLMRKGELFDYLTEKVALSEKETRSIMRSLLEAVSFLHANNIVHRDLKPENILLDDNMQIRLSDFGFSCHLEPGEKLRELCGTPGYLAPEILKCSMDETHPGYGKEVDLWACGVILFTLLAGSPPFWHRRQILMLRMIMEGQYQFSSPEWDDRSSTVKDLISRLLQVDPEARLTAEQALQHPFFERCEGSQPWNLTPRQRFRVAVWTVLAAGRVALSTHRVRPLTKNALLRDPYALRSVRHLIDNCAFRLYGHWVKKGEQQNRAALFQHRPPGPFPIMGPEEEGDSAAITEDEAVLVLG
Chain of SIK2 (Q9H0K1 whole entry): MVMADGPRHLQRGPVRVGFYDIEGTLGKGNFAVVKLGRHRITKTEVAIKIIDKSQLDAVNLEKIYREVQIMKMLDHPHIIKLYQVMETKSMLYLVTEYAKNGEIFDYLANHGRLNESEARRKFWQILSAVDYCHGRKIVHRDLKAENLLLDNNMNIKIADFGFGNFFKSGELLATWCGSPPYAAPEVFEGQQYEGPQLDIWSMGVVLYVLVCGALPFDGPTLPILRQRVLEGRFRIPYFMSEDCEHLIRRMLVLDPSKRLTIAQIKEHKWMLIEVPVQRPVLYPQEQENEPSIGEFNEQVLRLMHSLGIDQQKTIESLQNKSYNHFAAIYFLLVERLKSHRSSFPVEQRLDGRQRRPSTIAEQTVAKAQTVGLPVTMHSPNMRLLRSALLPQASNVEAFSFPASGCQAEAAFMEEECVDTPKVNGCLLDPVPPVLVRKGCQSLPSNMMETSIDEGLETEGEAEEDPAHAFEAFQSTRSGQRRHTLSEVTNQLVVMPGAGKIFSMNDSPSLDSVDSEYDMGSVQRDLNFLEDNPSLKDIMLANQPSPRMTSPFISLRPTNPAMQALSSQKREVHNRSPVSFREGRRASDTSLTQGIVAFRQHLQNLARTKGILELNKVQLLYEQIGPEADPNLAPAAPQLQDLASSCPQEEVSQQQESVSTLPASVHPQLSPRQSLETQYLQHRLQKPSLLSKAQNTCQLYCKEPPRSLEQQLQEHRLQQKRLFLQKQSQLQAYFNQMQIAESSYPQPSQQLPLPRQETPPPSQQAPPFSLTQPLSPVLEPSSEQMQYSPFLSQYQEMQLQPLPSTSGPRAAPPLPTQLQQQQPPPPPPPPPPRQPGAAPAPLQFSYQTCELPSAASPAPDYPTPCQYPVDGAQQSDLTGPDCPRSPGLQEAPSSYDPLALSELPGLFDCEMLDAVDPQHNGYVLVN
Chain of PAK6 (Q9NQU5 whole entry): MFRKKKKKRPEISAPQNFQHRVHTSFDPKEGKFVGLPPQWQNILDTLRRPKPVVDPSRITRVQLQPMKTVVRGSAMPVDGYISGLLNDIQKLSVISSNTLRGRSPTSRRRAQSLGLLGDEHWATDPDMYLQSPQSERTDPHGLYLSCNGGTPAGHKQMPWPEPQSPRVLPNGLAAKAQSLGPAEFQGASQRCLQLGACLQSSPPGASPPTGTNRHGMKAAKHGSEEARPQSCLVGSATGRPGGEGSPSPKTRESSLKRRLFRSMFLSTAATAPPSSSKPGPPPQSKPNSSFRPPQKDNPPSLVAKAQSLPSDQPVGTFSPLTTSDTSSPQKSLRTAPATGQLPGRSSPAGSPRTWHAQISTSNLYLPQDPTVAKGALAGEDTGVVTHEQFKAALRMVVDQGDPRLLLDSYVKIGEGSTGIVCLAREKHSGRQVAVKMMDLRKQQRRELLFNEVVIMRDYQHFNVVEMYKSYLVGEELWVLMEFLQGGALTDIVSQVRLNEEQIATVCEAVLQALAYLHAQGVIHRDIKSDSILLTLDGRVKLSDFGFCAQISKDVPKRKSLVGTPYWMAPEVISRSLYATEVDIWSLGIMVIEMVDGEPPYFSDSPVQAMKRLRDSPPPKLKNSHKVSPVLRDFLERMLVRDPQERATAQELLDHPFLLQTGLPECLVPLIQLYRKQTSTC
Chain of VRK2 (Q86Y07 whole entry): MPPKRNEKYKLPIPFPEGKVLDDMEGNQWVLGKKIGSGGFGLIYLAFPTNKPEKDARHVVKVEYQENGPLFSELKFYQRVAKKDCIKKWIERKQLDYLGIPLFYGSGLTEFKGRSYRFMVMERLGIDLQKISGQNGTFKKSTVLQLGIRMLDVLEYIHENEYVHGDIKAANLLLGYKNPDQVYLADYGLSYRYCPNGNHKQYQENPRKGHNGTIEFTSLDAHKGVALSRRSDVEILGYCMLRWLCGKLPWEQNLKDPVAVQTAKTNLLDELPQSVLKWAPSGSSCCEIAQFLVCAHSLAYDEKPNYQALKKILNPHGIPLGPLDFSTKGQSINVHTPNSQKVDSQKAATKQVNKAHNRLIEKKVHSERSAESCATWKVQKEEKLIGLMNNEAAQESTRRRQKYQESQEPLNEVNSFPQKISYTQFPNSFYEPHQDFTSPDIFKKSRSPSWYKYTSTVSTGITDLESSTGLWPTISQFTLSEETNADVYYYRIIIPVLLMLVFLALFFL
Chain of NEK3 (P51956 whole entry): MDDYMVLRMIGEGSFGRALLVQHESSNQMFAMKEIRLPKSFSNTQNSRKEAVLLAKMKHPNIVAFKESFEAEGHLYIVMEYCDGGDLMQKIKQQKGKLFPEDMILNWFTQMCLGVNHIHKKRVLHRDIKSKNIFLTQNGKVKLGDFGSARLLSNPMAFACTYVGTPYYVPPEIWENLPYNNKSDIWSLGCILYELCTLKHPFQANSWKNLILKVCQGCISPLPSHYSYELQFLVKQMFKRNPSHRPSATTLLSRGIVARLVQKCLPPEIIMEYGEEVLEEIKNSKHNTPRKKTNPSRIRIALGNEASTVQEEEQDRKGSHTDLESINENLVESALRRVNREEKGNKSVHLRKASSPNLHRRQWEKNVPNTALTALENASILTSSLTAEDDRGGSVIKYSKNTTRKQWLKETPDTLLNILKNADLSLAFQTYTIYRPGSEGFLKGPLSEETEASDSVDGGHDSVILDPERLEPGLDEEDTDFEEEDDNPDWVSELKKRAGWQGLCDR

Structure (SMILES): CN1CCN(c2ccc(Nc3nc(Oc4ccc(NC(=O)CCl)cc4)c4cc[nH]c4n3)cc2)CC1 [CPT1-70-1]
remaining activity at 1 µM [1, 30]: 17%
remaining activity at 1 µM [2, 30]: 100%
remaining activity at 1 µM [3, 30]: 100%
remaining activity at 1 µM [4, 30]: 100%
remaining activity at 1 µM [5, 30]: 39%
remaining activity at 1 µM [6, 30]: 74%
remaining activity at 1 µM [7, 30]: 5.2%
remaining activity at 1 µM [8, 30]: 68%
remaining activity at 1 µM [9, 30]: 100%
remaining activity at 1 µM [10, 30]: 32%
remaining activity at 1 µM [11, 30]: 40%
remaining activity at 1 µM [12, 30]: 57%
remaining activity at 1 µM ([13]; read-out: CPT-1-70-1 (1μM) % control, Kin.Dom.1-N-terminal): 66%
remaining activity at 1 µM ([13]; read-out: CPT-1-70-1 (1μM) % control, Kin.Dom.2-C-terminal): 100%
remaining activity at 1 µM [14, 30]: 100%
remaining activity at 1 µM [15, 30]: 54%
remaining activity at 1 µM [16, 30]: 79%
remaining activity at 1 µM [17, 30]: 100%
remaining activity at 1 µM [18, 30]: 18%
remaining activity at 1 µM [19, 30]: 0.95%
remaining activity at 1 µM [20, 30]: 72%
remaining activity at 1 µM [21, 30]: 4.8%
remaining activity at 1 µM [22, 30]: 86%
remaining activity at 1 µM [23, 30]: 97%
remaining activity at 1 µM [24, 30]: 66%
remaining activity at 1 µM [25, 30]: 63%
remaining activity at 1 µM [26, 30]: 48%
remaining activity at 1 µM [27, 30]: 100%
remaining activity at 1 µM [28, 30]: 100%
remaining activity at 1 µM [29, 30]: 64%

remaining activity at 1 µM [1, 31]: 0.55%
remaining activity at 1 µM [2, 31]: 100%
remaining activity at 1 µM [3, 31]: 100%
remaining activity at 1 µM [4, 31]: 94%
remaining activity at 1 µM [5, 31]: 4.3%
remaining activity at 1 µM [6, 31]: 100%
remaining activity at 1 µM [7, 31]: 35%
remaining activity at 1 µM [8, 31]: 100%
remaining activity at 1 µM [9, 31]: 4.1%
remaining activity at 1 µM [10, 31]: 89%
remaining activity at 1 µM [11, 31]: 6.4%
remaining activity at 1 µM [12, 31]: 34%
remaining activity at 1 µM ([13]; read-out: HYJ-2-002-1 (1μM) % control, Kin.Dom.1-N-terminal): 42%
remaining activity at 1 µM ([13]; read-out: HYJ-2-002-1 (1μM) % control, Kin.Dom.2-C-terminal): 73%
remaining activity at 1 µM [14, 31]: 100%
remaining activity at 1 µM [15, 31]: 67%
remaining activity at 1 µM [16, 31]: 100%
remaining activity at 1 µM [17, 31]: 100%
remaining activity at 1 µM [18, 31]: 100%
remaining activity at 1 µM [19, 31]: 15%
remaining activity at 1 µM [20, 31]: 73%
remaining activity at 1 µM [21, 31]: 64%
remaining activity at 1 µM [22, 31]: 8.9%
remaining activity at 1 µM [23, 31]: 100%
remaining activity at 1 µM [24, 31]: 21%
remaining activity at 1 µM [25, 31]: 18%
remaining activity at 1 µM [26, 31]: 100%
remaining activity at 1 µM [27, 31]: 21%
remaining activity at 1 µM [28, 31]: 100%
remaining activity at 1 µM [29, 31]: 0.65%
Structure (SMILES): CCN1CCN(Cc2ccc(NC(=O)c3ccc(C)c(CCc4cnc5[nH]ccc5c4OC)c3)cc2C(F)(F)F)CC1 [HYJ-2-002-1]
